Reference: ChEMBL document CHEMBL3421558, “Structure activity relationship of substituted 1,5-naphthyridine analogs of oxabicyclooctane-linked novel bacterial topoisomerase inhibitors as broad-spectrum antibacterial agents (Part-4)” (Bioorg Med Chem Lett, 2015)
Values after ≈ are worked out from the molar mass of the structure shown.

System: Staphylococcus aureus
Assay: Antimicrobial activity against Staphylococcus aureus Smith by micro broth dilution or agar based method
Format: functional
Settings: Staphylococcus aureus, Smith; read-out: MIC

Compared with `Cc1nc2c(CCC34CCC(NCc5ccc6c(n5)NC(=O)CO6)(CC3)CO4)ccnc2cc1C#N`, `O=C1COc2ccc(CNC34CCC(CCc5ccnc6cc(Cl)cnc56)(CC3)OC4)nc2N1` is 4-fold higher in MIC: 16 µg/mL (≈ 33 µM) for the first, 64 µg/mL (≈ 133 µM) for the second.

Compared with `Nc1ccc2ncc(F)c(CCC34CCC(NCc5ccc6c(n5)NC(=O)CO6)(CC3)CO4)c2n1`, `O=C1COc2ccc(CNC34CCC(CCc5c(F)cnc6ccc(O)nc56)(CC3)OC4)nc2N1` is 4-fold lower in MIC: 2 µg/mL (≈ 4.18 µM) for the first, 0.5 µg/mL (≈ 1.04 µM) for the second.

First: O=C1COc2ccc(CNC34CCC(CCc5c(F)cnc6cccnc56)(CC3)OC4)nc2N1
Second: Cc1ccc2ncc(F)c(CCC34CCC(NCc5ccc6c(n5)NC(=O)CO6)(CC3)CO4)c2n1
The MIC of the first is 2-fold higher: 0.5 µg/mL (≈ 1.08 µM) for the first, 0.25 µg/mL (≈ 0.524 µM) for the second.

Going from `COc1ccc2ncc(OC)c(CCC34CCC(NCc5ccc6c(n5)NC(=O)CO6)(CC3)CO4)c2n1` to `COc1ccc2ncc(Cl)c(CCC34CCC(NCc5ccc6c(n5)NC(=O)CO6)(CC3)CO4)c2n1`, the MIC falls from 0.125 µg/mL (≈ 0.247 µM) to 0.008 µg/mL (≈ 0.0157 µM) (16-fold).

For `CN(C)c1ccc2ncc(F)c(CCC34CCC(NCc5ccc6c(n5)NC(=O)CO6)(CC3)CO4)c2n1`, the MIC was 0.25 µg/mL (≈ 0.494 µM).

System: Staphylococcus aureus
Assay: Antimicrobial activity against methicillin-resistant Staphylococcus aureus OIT971 by micro broth dilution or agar based method
Format: functional
Settings: not given

`Cc1nc2c(CCC34CCC(NCc5ccc6c(n5)NC(=O)CO6)(CC3)CO4)ccnc2cc1C#N` and `O=C1COc2ccc(CNC34CCC(CCc5ccnc6cc(Cl)cnc56)(CC3)OC4)nc2N1` are the same in MIC: 16 µg/mL (≈ 33 µM) for the first, 16 µg/mL (≈ 33.3 µM) for the second.

Compared with `Nc1ccc2ncc(F)c(CCC34CCC(NCc5ccc6c(n5)NC(=O)CO6)(CC3)CO4)c2n1`, `O=C1COc2ccc(CNC34CCC(CCc5c(F)cnc6ccc(O)nc56)(CC3)OC4)nc2N1` is 4-fold lower in MIC: 1 µg/mL (≈ 2.09 µM) for the first, 0.25 µg/mL (≈ 0.521 µM) for the second.

Going from `O=C1COc2ccc(CNC34CCC(CCc5c(F)cnc6cccnc56)(CC3)OC4)nc2N1` to `Cc1ccc2ncc(F)c(CCC34CCC(NCc5ccc6c(n5)NC(=O)CO6)(CC3)CO4)c2n1`, the MIC falls from 0.25 µg/mL (≈ 0.539 µM) to 0.125 µg/mL (≈ 0.262 µM) (2-fold).

Going from `COc1ccc2ncc(OC)c(CCC34CCC(NCc5ccc6c(n5)NC(=O)CO6)(CC3)CO4)c2n1` to `COc1ccc2ncc(Cl)c(CCC34CCC(NCc5ccc6c(n5)NC(=O)CO6)(CC3)CO4)c2n1`, the MIC falls from 0.063 µg/mL (≈ 0.125 µM) to 0.008 µg/mL (≈ 0.0157 µM) (7.9-fold).

In the case of `CN(C)c1ccc2ncc(F)c(CCC34CCC(NCc5ccc6c(n5)NC(=O)CO6)(CC3)CO4)c2n1`, the MIC is reported as 0.25 µg/mL (≈ 0.494 µM).

System: Streptococcus pneumoniae
Assay: Antimicrobial activity against Streptococcus pneumoniae IID553 by micro broth dilution or agar based method
Format: functional
Settings: Streptococcus pneumoniae, IID553; read-out: MIC

Compared with `Cc1nc2c(CCC34CCC(NCc5ccc6c(n5)NC(=O)CO6)(CC3)CO4)ccnc2cc1C#N`, `O=C1COc2ccc(CNC34CCC(CCc5ccnc6cc(Cl)cnc56)(CC3)OC4)nc2N1` is 4-fold higher in MIC: 16 µg/mL (≈ 33 µM) for the first, 64 µg/mL (≈ 133 µM) for the second.

Compared with `Nc1ccc2ncc(F)c(CCC34CCC(NCc5ccc6c(n5)NC(=O)CO6)(CC3)CO4)c2n1`, `O=C1COc2ccc(CNC34CCC(CCc5c(F)cnc6ccc(O)nc56)(CC3)OC4)nc2N1` is 4-fold lower in MIC: 16 µg/mL (≈ 33.4 µM) for the first, 4 µg/mL (≈ 8.34 µM) for the second.

First: O=C1COc2ccc(CNC34CCC(CCc5c(F)cnc6cccnc56)(CC3)OC4)nc2N1
Second: Cc1ccc2ncc(F)c(CCC34CCC(NCc5ccc6c(n5)NC(=O)CO6)(CC3)CO4)c2n1
The MIC of the first is 2-fold higher: 4 µg/mL (≈ 8.63 µM) for the first, 2 µg/mL (≈ 4.19 µM) for the second.

Going from `COc1ccc2ncc(OC)c(CCC34CCC(NCc5ccc6c(n5)NC(=O)CO6)(CC3)CO4)c2n1` to `COc1ccc2ncc(Cl)c(CCC34CCC(NCc5ccc6c(n5)NC(=O)CO6)(CC3)CO4)c2n1`, the MIC falls from 4 µg/mL (≈ 7.91 µM) to 0.25 µg/mL (≈ 0.49 µM) (16-fold).

Compound `CN(C)c1ccc2ncc(F)c(CCC34CCC(NCc5ccc6c(n5)NC(=O)CO6)(CC3)CO4)c2n1` has an MIC of 2 µg/mL (≈ 3.95 µM).

System: Enterococcus faecium
Assay: Antimicrobial activity against VanA expressing vancomycin-resistant Enterococcus faecium by micro broth dilution or agar based method
Format: functional
Settings: Enterococcus faecium; read-out: MIC

First: Cc1nc2c(CCC34CCC(NCc5ccc6c(n5)NC(=O)CO6)(CC3)CO4)ccnc2cc1C#N
Second: O=C1COc2ccc(CNC34CCC(CCc5ccnc6cc(Cl)cnc56)(CC3)OC4)nc2N1
The MIC of the first is 4-fold lower: 16 µg/mL (≈ 33 µM) for the first, 64 µg/mL (≈ 133 µM) for the second.

`Nc1ccc2ncc(F)c(CCC34CCC(NCc5ccc6c(n5)NC(=O)CO6)(CC3)CO4)c2n1` and `O=C1COc2ccc(CNC34CCC(CCc5c(F)cnc6ccc(O)nc56)(CC3)OC4)nc2N1` are the same in MIC: 8 µg/mL (≈ 16.7 µM) for the first, 8 µg/mL (≈ 16.7 µM) for the second.

`O=C1COc2ccc(CNC34CCC(CCc5c(F)cnc6cccnc56)(CC3)OC4)nc2N1` and `Cc1ccc2ncc(F)c(CCC34CCC(NCc5ccc6c(n5)NC(=O)CO6)(CC3)CO4)c2n1` are the same in MIC: 4 µg/mL (≈ 8.63 µM) for the first, 4 µg/mL (≈ 8.38 µM) for the second.

First: COc1ccc2ncc(OC)c(CCC34CCC(NCc5ccc6c(n5)NC(=O)CO6)(CC3)CO4)c2n1
Second: COc1ccc2ncc(Cl)c(CCC34CCC(NCc5ccc6c(n5)NC(=O)CO6)(CC3)CO4)c2n1
The MIC of the first is 4-fold higher: 4 µg/mL (≈ 7.91 µM) for the first, 1 µg/mL (≈ 1.96 µM) for the second.

Work on `CN(C)c1ccc2ncc(F)c(CCC34CCC(NCc5ccc6c(n5)NC(=O)CO6)(CC3)CO4)c2n1` yielded an MIC of 4 µg/mL (≈ 7.9 µM).

System: Escherichia coli
Assay: Antimicrobial activity against Escherichia coli ATCC 25922 by micro broth dilution or agar based method
Format: functional
Settings: Escherichia coli, ATCC 25922; read-out: MIC

Going from `Cc1nc2c(CCC34CCC(NCc5ccc6c(n5)NC(=O)CO6)(CC3)CO4)ccnc2cc1C#N` to `O=C1COc2ccc(CNC34CCC(CCc5ccnc6cc(Cl)cnc56)(CC3)OC4)nc2N1`, the MIC rises from 16 µg/mL (≈ 33 µM) to 64 µg/mL (≈ 133 µM) (4-fold).

Compared with `Nc1ccc2ncc(F)c(CCC34CCC(NCc5ccc6c(n5)NC(=O)CO6)(CC3)CO4)c2n1`, `O=C1COc2ccc(CNC34CCC(CCc5c(F)cnc6ccc(O)nc56)(CC3)OC4)nc2N1` is 2-fold lower in MIC: 8 µg/mL (≈ 16.7 µM) for the first, 4 µg/mL (≈ 8.34 µM) for the second.

First: O=C1COc2ccc(CNC34CCC(CCc5c(F)cnc6cccnc56)(CC3)OC4)nc2N1
Second: Cc1ccc2ncc(F)c(CCC34CCC(NCc5ccc6c(n5)NC(=O)CO6)(CC3)CO4)c2n1
The MIC of the first is 2-fold lower: 4 µg/mL (≈ 8.63 µM) for the first, 8 µg/mL (≈ 16.8 µM) for the second.

Compared with `COc1ccc2ncc(OC)c(CCC34CCC(NCc5ccc6c(n5)NC(=O)CO6)(CC3)CO4)c2n1`, `COc1ccc2ncc(Cl)c(CCC34CCC(NCc5ccc6c(n5)NC(=O)CO6)(CC3)CO4)c2n1` is 8-fold lower in MIC: 16 µg/mL (≈ 31.6 µM) for the first, 2 µg/mL (≈ 3.92 µM) for the second.

Compound `CN(C)c1ccc2ncc(F)c(CCC34CCC(NCc5ccc6c(n5)NC(=O)CO6)(CC3)CO4)c2n1` has an MIC of 8 µg/mL (≈ 15.8 µM).

System: Acinetobacter baumannii
Assay: Antimicrobial activity against Acinetobacter baumannii IID876 by micro broth dilution or agar based method
Format: functional
Settings: Acinetobacter baumannii, IID876; read-out: MIC

Compared with `Cc1nc2c(CCC34CCC(NCc5ccc6c(n5)NC(=O)CO6)(CC3)CO4)ccnc2cc1C#N`, `O=C1COc2ccc(CNC34CCC(CCc5ccnc6cc(Cl)cnc56)(CC3)OC4)nc2N1` is 4-fold higher in MIC: 16 µg/mL (≈ 33 µM) for the first, 64 µg/mL (≈ 133 µM) for the second.

`Nc1ccc2ncc(F)c(CCC34CCC(NCc5ccc6c(n5)NC(=O)CO6)(CC3)CO4)c2n1` and `O=C1COc2ccc(CNC34CCC(CCc5c(F)cnc6ccc(O)nc56)(CC3)OC4)nc2N1` are the same in MIC: 2 µg/mL (≈ 4.18 µM) for the first, 2 µg/mL (≈ 4.17 µM) for the second.

First: O=C1COc2ccc(CNC34CCC(CCc5c(F)cnc6cccnc56)(CC3)OC4)nc2N1
Second: Cc1ccc2ncc(F)c(CCC34CCC(NCc5ccc6c(n5)NC(=O)CO6)(CC3)CO4)c2n1
The MIC of the first is 2-fold lower: 1 µg/mL (≈ 2.16 µM) for the first, 2 µg/mL (≈ 4.19 µM) for the second.

First: COc1ccc2ncc(OC)c(CCC34CCC(NCc5ccc6c(n5)NC(=O)CO6)(CC3)CO4)c2n1
Second: COc1ccc2ncc(Cl)c(CCC34CCC(NCc5ccc6c(n5)NC(=O)CO6)(CC3)CO4)c2n1
The MIC of the first is 8-fold higher: 8 µg/mL (≈ 15.8 µM) for the first, 1 µg/mL (≈ 1.96 µM) for the second.

Work on `CN(C)c1ccc2ncc(F)c(CCC34CCC(NCc5ccc6c(n5)NC(=O)CO6)(CC3)CO4)c2n1` yielded an MIC of 8 µg/mL (≈ 15.8 µM).

System: Pseudomonas aeruginosa
Assay: Antimicrobial activity against Pseudomonas aeruginosa PAO1 by micro broth dilution or agar based method
Format: functional
Settings: Pseudomonas aeruginosa, PAO1; read-out: MIC

Going from `Cc1nc2c(CCC34CCC(NCc5ccc6c(n5)NC(=O)CO6)(CC3)CO4)ccnc2cc1C#N` to `O=C1COc2ccc(CNC34CCC(CCc5ccnc6cc(Cl)cnc56)(CC3)OC4)nc2N1`, the MIC rises from 16 µg/mL (≈ 33 µM) to 64 µg/mL (≈ 133 µM) (4-fold).

First: Nc1ccc2ncc(F)c(CCC34CCC(NCc5ccc6c(n5)NC(=O)CO6)(CC3)CO4)c2n1
Second: O=C1COc2ccc(CNC34CCC(CCc5c(F)cnc6ccc(O)nc56)(CC3)OC4)nc2N1
The MIC of the first is 2-fold lower: 16 µg/mL (≈ 33.4 µM) for the first, 32 µg/mL (≈ 66.7 µM) for the second.

`O=C1COc2ccc(CNC34CCC(CCc5c(F)cnc6cccnc56)(CC3)OC4)nc2N1` and `Cc1ccc2ncc(F)c(CCC34CCC(NCc5ccc6c(n5)NC(=O)CO6)(CC3)CO4)c2n1` are the same in MIC: 16 µg/mL (≈ 34.5 µM) for the first, 16 µg/mL (≈ 33.5 µM) for the second.

Compared with `COc1ccc2ncc(OC)c(CCC34CCC(NCc5ccc6c(n5)NC(=O)CO6)(CC3)CO4)c2n1`, `COc1ccc2ncc(Cl)c(CCC34CCC(NCc5ccc6c(n5)NC(=O)CO6)(CC3)CO4)c2n1` is 8-fold lower in MIC: 64 µg/mL (≈ 127 µM) for the first, 8 µg/mL (≈ 15.7 µM) for the second.

In the case of `CN(C)c1ccc2ncc(F)c(CCC34CCC(NCc5ccc6c(n5)NC(=O)CO6)(CC3)CO4)c2n1`, the MIC is reported as 8 µg/mL (≈ 15.8 µM).
